This note sets out measurements from ChEMBL document CHEMBL5674860, “Optimized Dual-Glo Assay to identify co-culture-induced drug vulnerabilities in 3D CRC models” (2024).

What all share (type): functional, Homo sapiens
Design in all cases: dose or concentration left out as unconfirmed

The test system of assay [1] is Colon cancer organoid. Put plainly: Optimized Dual-Glo assay to identify co-culture induced drug vulnerabilities using donated chemical probes and chemogenomics kinase set in O06 CRC organoid and F06 CAF mono and co-culture. […] Cell viability is reported both mono and co-culture models.
The test system of assay [2] is Colon cancer organoid. Put plainly: Optimized Dual-Glo assay to identify co-culture induced drug vulnerabilities using donated chemical probes and chemogenomics kinase set in O20 CRC organoid and F20 CAF mono and co-culture. […] Cell viability is reported both mono and co-culture models.
In assay [3] the test system is Colon cancer organoid. Put plainly: Optimized Dual-Glo assay to identify co-culture induced drug vulnerabilities using donated chemical probes and chemogenomics kinase set in O14 CRC organoid and F14 CAF mono and co-culture. […] Cell viability is reported both mono and co-culture models.
Where [4] appears, read: Culture type Co-Culture, Transduced with Lucferase2-P2A-EGFP lentivirus.
[5] abbreviates: Culture type Co-Culture, Transduced with Renilla-dsRed lentivirus.
Setting [6] is: Culture type Mono-Culture, Transduced with Lucferase2-P2A-EGFP lentivirus.
The mark [7] stands for this setting: Culture type Mono-Culture, Transduced with Renilla-dsRed lentivirus.

Turning to `Cc1ccc(-c2ccc3c(ccc4sc5c(c43)NC[C@@H](C)NC5=O)n2)cn1`, the “Cell Viability” value was found to be 100.355% in assay [1] (setting [4]); 85.371% in assay [1] (setting [5]); 114.604% in assay [1] (setting [6]); 88.0896% in assay [1] (setting [7]); 152.499% in assay [2] (setting [4]); 70.7863% in assay [2] (setting [5]). The “Cell Viability” value in assay [2] (setting [6]) is 154.638%; in assay [2] (setting [7]), 67.5844%; in assay [3] (setting [4]), 126.339%; in assay [3] (setting [5]), 65.0441%; in assay [3] (setting [6]), 182.208%; in assay [3] (setting [7]), 70.7861%.
Take `CCOc1cc(N2CCC(O)CC2)ccc1Nc1ncc2c(n1)N(C)c1ccccc1C(=O)N2C`: the “Cell Viability” value in assay [1] (setting [4]) stood at 85.6087%; in assay [1] (setting [5]), 128.987%; in assay [1] (setting [6]) it was 73.5863%; in assay [1] (setting [7]) it was 165.88%; in assay [2] (setting [4]), 81.7751%; in assay [2] (setting [5]) it was 117.331%. For the same compound, the “Cell Viability” value in assay [2] (setting [6]) is listed as 65.2469%; in assay [2] (setting [7]) it was 115.42%; in assay [3] (setting [4]) it was 76.0009%; in assay [3] (setting [5]), 186.577%; in assay [3] (setting [6]) it was 84.1713%; in assay [3] (setting [7]), 122.992%.
On to `Nc1ccc(C(=O)Nc2cccc(-c3nc(N4CCOCC4)c4oc5ncccc5c4n3)c2)cn1`, for which the “Cell Viability” value was 78.745% in assay [1] (setting [4]); 81.5262% in assay [1] (setting [5]); 28.4733% in assay [1] (setting [6]); 93.3288% in assay [1] (setting [7]); 142.389% in assay [2] (setting [4]); 75.1771% in assay [2] (setting [5]). The “Cell Viability” value in assay [2] (setting [6]) was 60.1963%; in assay [2] (setting [7]), 81.7819%; in assay [3] (setting [4]) it was 67.7704%; in assay [3] (setting [5]), 105.191%; in assay [3] (setting [6]), 42.3601%; in assay [3] (setting [7]), 61.5192%.
For `O=C1[C@H](Cc2ccc(O)cc2)N2C(=O)CCN(C(=O)NCc3ccccc3)[C@H]2CN1Cc1cccc2ccccc12`, the “Cell Viability” value in assay [1] (setting [4]) came out at 79.2211%; in assay [1] (setting [5]), 124.216%; in assay [1] (setting [6]), 100.059%; in assay [1] (setting [7]), 61.7438%; in assay [2] (setting [4]) it was 89.6614%; in assay [2] (setting [5]), 144.616%. Also, the “Cell Viability” value in assay [2] (setting [6]) is on record as 131.376%; in assay [2] (setting [7]), 33.7268%; in assay [3] (setting [4]), 20.45%; in assay [3] (setting [5]), 145.967%; in assay [3] (setting [6]), 17.2238%; in assay [3] (setting [7]) it was 77.2237%.
For the compound `CCOC(=O)Nc1cc(-c2ccc(C)c(NS(C)(=O)=O)c2)nn2c(C)nnc12`, the “Cell Viability” value in assay [1] (setting [4]) stood at 112.605%; in assay [1] (setting [5]), 266.102%; in assay [1] (setting [6]), 81.8905%; in assay [1] (setting [7]), 215.442%; in assay [2] (setting [4]) it was 38.58%; in assay [2] (setting [5]), 177.965%. The “Cell Viability” value in assay [2] (setting [6]) was found to be 39.5437%; in assay [2] (setting [7]) it was 109.867%; in assay [3] (setting [4]), 71.1092%; in assay [3] (setting [5]), 228.167%; in assay [3] (setting [6]), 66.8371%; in assay [3] (setting [7]), 176.186%.
For the compound `COc1ccccc1-c1cc(Nc2cccc(CS(N)(=O)=O)c2)ncn1`, the “Cell Viability” value in assay [1] (setting [4]) turned out to be 105.6%; in assay [1] (setting [5]) it was 95.8866%; in assay [1] (setting [6]), 67.576%; in assay [1] (setting [7]) it was 79.9168%; in assay [2] (setting [4]), 104.861%; in assay [2] (setting [5]), 97.4583%. The “Cell Viability” value stood at 84.7968% in assay [2] (setting [6]); 76.3761% in assay [2] (setting [7]); 107.839% in assay [3] (setting [4]); 92.9577% in assay [3] (setting [5]); 111.603% in assay [3] (setting [6]); 77.4194% in assay [3] (setting [7]).
For the compound `COc1ccccc1C(=O)Nc1cc2c(cc1N1CCCC1)n(C)c(=O)n2C`, the “Cell Viability” value in assay [2] (setting [4]) was 113.69%; in assay [2] (setting [5]), 143.545%; in assay [2] (setting [6]), 104.265%; in assay [2] (setting [7]), 110.449%; in assay [3] (setting [4]) it was 94.3985%; in assay [3] (setting [5]), 117.237%. The “Cell Viability” value in assay [3] (setting [6]) turned out to be 96.8906%; in assay [3] (setting [7]) it was 95.8256%.
For the compound `CC1=C(C(=O)Nc2cc3cn[nH]c3cc2F)C(c2ccc(C(F)(F)F)cc2)CC(=O)N1` (stereo not drawn), the “Cell Viability” value came out at 110.512% in assay [1] (setting [4]); 74.1449% in assay [1] (setting [5]); 112.137% in assay [1] (setting [6]); 107.646% in assay [1] (setting [7]); 133.522% in assay [2] (setting [4]); 94.2958% in assay [2] (setting [5]). Further, the “Cell Viability” value in assay [2] (setting [6]) came to 98.8555%; in assay [2] (setting [7]), 95.2955%; in assay [3] (setting [4]), 79.4624%; in assay [3] (setting [5]) it was 111.728%; in assay [3] (setting [6]), 79.1311%; in assay [3] (setting [7]), 103.404%.
For the compound `COc1cc(-c2cn(C)c(=O)c3cnccc23)c(OC)cc1CN(C)C`, the “Cell Viability” value in assay [1] (setting [4]) came out at 79.252%; in assay [1] (setting [5]), 108.934%; in assay [1] (setting [6]), 73.0791%; in assay [1] (setting [7]), 96.9165%; in assay [2] (setting [4]) it was 61.2069%; in assay [2] (setting [5]), 139.676%. For the same compound, the “Cell Viability” value is 83.2777% in assay [2] (setting [6]); 82.5544% in assay [2] (setting [7]); 86.2085% in assay [3] (setting [4]); 136.409% in assay [3] (setting [5]); 67.8836% in assay [3] (setting [6]); 114.194% in assay [3] (setting [7]).
`CN(C)C(=O)/C(C#N)=C/c1ccc(-c2nc3cnc4[nH]ccc4c3n2C2CCCCC2)o1`: the “Cell Viability” value in assay [1] (setting [4]) worked out at 95.2227%; in assay [1] (setting [5]), 96.9669%; in assay [1] (setting [6]), 138.382%; in assay [1] (setting [7]) it was 96.6584%; in assay [2] (setting [4]), 75.2682%; in assay [2] (setting [5]), 130.215%. The “Cell Viability” value in assay [2] (setting [6]) came out at 113.424%; in assay [2] (setting [7]), 104.709%; in assay [3] (setting [4]), 115.273%; in assay [3] (setting [5]), 92.8472%; in assay [3] (setting [6]) it was 120.035%; in assay [3] (setting [7]), 91.5278%.
For `Cl.Cl.NC1(c2ccc(-c3nc4ccn5c(=O)[nH]nc5c4cc3-c3ccccc3)cc2)CCC1`, the “Cell Viability” value was 52.26% in assay [1] (setting [4]); 91.614% in assay [1] (setting [5]); 79.8603% in assay [1] (setting [6]); 69.8373% in assay [1] (setting [7]); 44.0229% in assay [2] (setting [4]); 145.22% in assay [2] (setting [5]). Further, the “Cell Viability” value is given as 34.39% in assay [2] (setting [6]); 114.515% in assay [2] (setting [7]); 42.2425% in assay [3] (setting [4]); 103.472% in assay [3] (setting [5]); 90.3868% in assay [3] (setting [6]); 88.3443% in assay [3] (setting [7]).
With `Cn1cc(-c2ccc3occ(-c4ccccc4-c4ccccc4)c3n2)cn1`, the “Cell Viability” value is 137.24% in assay [1] (setting [4]); 150.558% in assay [1] (setting [5]); 120.153% in assay [1] (setting [6]); 121.662% in assay [1] (setting [7]); 88.7548% in assay [2] (setting [4]); 89.3741% in assay [2] (setting [5]). Moreover, the “Cell Viability” value in assay [2] (setting [6]) amounted to 123.78%; in assay [2] (setting [7]) it was 115.172%; in assay [3] (setting [4]) it was 101.217%; in assay [3] (setting [5]), 93.8283%; in assay [3] (setting [6]) it was 119.561%; in assay [3] (setting [7]) it was 96.0811%.
On to `Cn1cc(-c2ccc3occ(-c4cccc(-c5ccncc5)c4)c3n2)cn1`, for which the “Cell Viability” value in assay [1] (setting [4]) was found to be 91.2802%; in assay [1] (setting [5]) it was 94.5664%; in assay [1] (setting [6]), 138.621%; in assay [1] (setting [7]), 110.377%; in assay [2] (setting [4]) it was 65.7439%; in assay [2] (setting [5]), 132.411%. The “Cell Viability” value in assay [2] (setting [6]) was found to be 69.6903%; in assay [2] (setting [7]), 72.543%; in assay [3] (setting [4]), 113.323%; in assay [3] (setting [5]), 67.5057%; in assay [3] (setting [6]) it was 72.9931%; in assay [3] (setting [7]), 81.4959%.
Consider `CN(C)C(=O)/C(C#N)=C/c1ccc(-c2nc3cnc4c(ccn4C)c3n2C2CCCCC2)o1`, for which the “Cell Viability” value was 100.774% in assay [1] (setting [4]); 167.563% in assay [1] (setting [5]); 117.157% in assay [1] (setting [6]); 133.695% in assay [1] (setting [7]); 49.7098% in assay [2] (setting [4]); 127.191% in assay [2] (setting [5]). In addition, the “Cell Viability” value in assay [2] (setting [6]) stood at 136.658%; in assay [2] (setting [7]), 125.979%; in assay [3] (setting [4]), 95.1732%; in assay [3] (setting [5]), 102.012%; in assay [3] (setting [6]), 142.854%; in assay [3] (setting [7]), 112.554%.
Take `CS(=O)(=O)N1CCN(Cc2cc3nc(-c4cccc5[nH]ncc45)nc(N4CCOCC4)c3s2)CC1` [PICTILISIB]: the “Cell Viability” value was 43.124% in assay [1] (setting [4]), 60.0718% in assay [1] (setting [5]), 35.1251% in assay [1] (setting [6]) and 58.2983% in assay [1] (setting [7]).
